Measurements taken from patent US12239643B2, “Therapeutic agent for inflammatory diseases, autoimmune diseases, fibrotic diseases, and cancer diseases” (MEIJI SEIKA PHARMA CO., LTD., priority 2018, dated 2025).

Experiments:
Format in all cases: cell-based
IL-13 = experiment: Cytokine suppression using human T cells: IL-13; settings: T-cell; human CD3-positive T cells, CD3 and CD28 antibody, about 48 hours; read-out: IL-13 Inhibitory Activity, Human T-Cell (Test Example 5)
Protocol: (§1) First, CD3-positive T cells were separated from whole blood by a magnetic bead method using an EasySep cell separation kit. Separated T cells suspended in RPMI-1640 medium were seeded on a 96-well plate previously coated with CD3 antibody (final concentration 3 μg/mL). Further, CD28 antibody (final concentration 5 ng/mL) was added as an IL-5 production stimulus and an IL-13 production stimulus. A test compound dissolved in dimethyl sulfoxide was added to each well, followed by culture at 37° C. under 5% CO2. The culture was carried out for about 18 hours for the evaluation of the amount of TNFα, and for about 48 hours for the evaluation of the amounts of IL-17A, IL-5, and IL-13. […]
(§2) The measurement results obtained by measuring the TNFα inhibitory activity (50% inhibitory concentration) of the test compounds by the above method were evaluated in accordance with the following evaluated basis; A: less than 10 nM, B: 10 nM or more and less than 100 nM, and C: 100 nM or more. In addition, the measurement results obtained by measuring the IL-17A inhibitory activity, IL-5 inhibitory activity, and IL-13 inhibitory activity (50% inhibitory concentration) of the test compounds were evaluated in accordance with the following evaluated basis; A: less than 500 nM, B: 500 nM or more and less than 5000 nM, and C: 5000 nM or more.

A549 (lung cancer) = experiment: Antitumor activity: growth inhibition of A549; settings: Homo sapiens, 120 h; A549, culturing for 5 days; read-out: 50% growth inhibitory concentration
Protocol: (§3) As antitumor activity, 50% growth inhibitory concentration of various cancer cells (CEM-C1 (blood cancer (leukemia)), SU-DHL-4 (blood cancer (lymphoma)), A549 (lung cancer), HCT-116 (colorectal cancer), and Daoy (brain tumor)) was calculated as follows. First, each of the above cancer cells was seeded on a 384-well plate and cultured overnight at 37° C. under 5% CO2. After that, the test compound was added at various concentrations on the next day, and each number of cells was measured after culturing for 5 days. The 50% growth inhibitory concentration was defined as the test compound concentration at which the number of cells measured is an intermediate value between the number of cells after culture for 5 days under the same conditions without the addition of the test compound and the number of cells at the time of seeding (before the start of culture). The measurement results obtained by measuring the 50% growth inhibitory concentration of the test compound by the above method were evaluated in accordance with the following evaluated basis; A: less than 10 μM, B: 10 μM or more and less than 50 μM, and C: 50 μM or more. As a result of using apremilast as the test compound, the evaluation was C in all cancer cells. On the other hand, as a result of using the compound obtained in Example 248 as the test compound, the evaluation was A in all cancer cells.

IL-4 = experiment: Cytokine suppression using human peripheral blood mononuclear cells: IL-4; settings: human PBMC, CD3 antibody and CD28 antibody; read-out: IL-4 Inhibitory Activity, Human PBMC (Test Example 4)
Protocol: (§4) First, peripheral blood mononuclear cells (PBMC) were separated from whole blood by specific gravity centrifugation. Then, the isolated peripheral blood mononuclear cells were added to RPMI-1640 medium (containing 10% fetal bovine serum, penicillin, streptomycin, L-glutamine, and 2-mercaptoethanol), and cultured in a 96-well plate at 37° C. under 5% CO2 for 0 to 1 hour. The test compound dissolved in dimethyl sulfoxide was added to each well, followed by further culture at 37° C. under 5% CO2 for 1 hour. A medium containing only dimethyl sulfoxide instead of the test compound was added to the control well. […]
as §2, with “TNFα inhibitory activity and IL-5” for “TNFα”, “IL-23 inhibitory activity, IL-4” for “IL-5”

[1] = system: HCT-116 (colorectal cancer); experiment: Antitumor activity: growth inhibition of HCT-116; settings: Homo sapiens, 120 h; HCT-116, culturing for 5 days; read-out: 50% growth inhibitory concentration
Protocol: as §3

IL-5 = experiment: Cytokine suppression using human T cells: IL-5; settings: T-cell; human CD3-positive T cells, CD3 and CD28 antibody, about 48 hours; read-out: IL-5 Inhibitory Activity, Human T-Cell (Test Example 5)
Protocol: as §1, §2

Daoy (brain tumor) = experiment: Antitumor activity: growth inhibition of Daoy; settings: Homo sapiens, 120 h, culturing for 5 days, read-out: 50% growth inhibitory concentration
Protocol: as §3

IL-17A [2] = experiment: Cytokine suppression using human peripheral blood mononuclear cells: IL-17A; settings: human PBMC, concanavalin A 20 μg/mL; read-out: IL-17A Inhibitory Activity, Human PBMC (Test Example 4)
Protocol: as §4
as §2, with “TNFα inhibitory activity and IL-5” for “TNFα”, “IL-23 inhibitory activity, IL-4” for “IL-5”

[3] = system: SU-DHL-4 (blood cancer (lymphoma)); experiment: Antitumor activity: growth inhibition of SU-DHL-4; settings: Homo sapiens, 120 h; SU-DHL-4, culturing for 5 days; read-out: 50% growth inhibitory concentration
Protocol: as §3

IL-17A [4] = experiment: Cytokine suppression using human T cells: IL-17A; settings: T-cell; human CD3-positive T cells, CD3 antibody, about 48 hours; read-out: IL-17A Inhibitory Activity, Human T-Cell (Test Example 5)
Protocol: as §1, §2

SMILES	IC50 (IL-13) [µM]	IC50 (A549 (lung cancer)) [µM]	IC50 (IL-4) [µM]	IC50 [1] [µM]	IC50 (IL-5) [µM]	IC50 (Daoy (brain tumor)) [µM]	IC50 (IL-17A [2]) [µM]	IC50 [3] [µM]	IC50 (IL-17A [4]) [µM]
CCOc1cc([C@@H](CS(C)(=O)=O)N2C(=O)c3cccc(NC(C)=O)c3C2=O)ccc1OC [apremilast, reference compound]	0.5 to 5	≥ 50	≥ 5	≥ 50	≥ 5	≥ 50	0.5 to 5	≥ 50	0.5 to 5
CC(C)(O)C(F)(F)Oc1ccc(-c2nccs2)c2oc(N3CC4CC(C3)N4)nc12 [Example 248, 1-((2-(3,6-Diazabicyclo[3.1.1]heptan-3-yl)-7-(thiazol-2-yl)benzo[d]oxazol-4-yl)oxy)-1,1-difluoro-2-methylpropan-2-ol]	< 0.5	< 10	< 0.5	< 10	< 0.5	< 10	< 0.5	< 10	< 0.5
